Laboratory results reported in patent US20240408080A1, “PHARMACEUTICAL COMPOSITIONS OF CGRP INHIBITORS AND METHODS OF THEIR USE” (Pfizer Ireland Pharmaceuticals, priority 2021, published 2024).

Assays:
[1] = pKa (physical and chemical properties of drug substance); assay type: physicochemical
[2] = tested on: acute treatment of migraine; experiment: Phase 2/3 clinical trial BHV3500-201 (Study 201), efficacy of intranasal zavegepant versus placebo; assay type: in vivo, human; conditions: for (2) Return to normal function at 2 hours posidose, Stratified Percentage Difference (Zavegepant − Placebo) / (7) Return to normal function at 60 minutes postdose, Stratified Percentage Difference (Zavegepant − Placebo) / (9) Return to normal function at 30 minutes postdose, Stratified Percentage Difference (Zavegepant − Placebo): subjects with functional disability at onset; for (9) Return to normal function at 30 minutes postdose, n/N (%): mITT subjects with functional disability at on-study migraine attack onset
[3] = Phase 1 multiple ascending dose (MAD) study, intranasal, pharmacokinetics; assay type: in vivo, human; conditions: for AUC: human
Procedure: A Phase 1, single-center, randomized, double-blind, placebo-controlled, sequential multiple ascending dose (MAD) study with 2 alternate dosing arms was conducted. […] The MAD portion of the study consists of 4 cohorts, with a maximum dose of 20 mg administered once daily for up to 14 days in 3 cohorts, and 20 mg administered twice daily for up to 8 days in the fourth cohort.
In addition to the 4 MAD cohorts, there were 2 alternate dosing cohorts, each consisting of 1 day dosing. The first alternate dosing cohort assessed the effect of 2 sequential administrations of 20 mg (20 mg spray [100 μL of 200 mg/mL] in alternate nostrils); with a 30 minute interval between administrations. A 2nd alternate dosing cohort assessed the effect of 2 sequential administrations of 20 mg (20 mg spray [100 μL of 200 mg/mL] in alternate nostrils); with a nose blow and 5 minute interval between administrations.
The PK data were collected from subjects in Cohorts 1 to 4.

[4] = pH-solubility profile (physical and chemical properties of drug substance); assay type: physicochemical; conditions: mono-hydrochloride salt
[5] = Phase 2/3 clinical trial BHV3500-201 (Study 201), safety, adverse events and liver function tests; assay type: in vivo, human
[6] = Zavegepant 5 mg Group vs placebo, CMH weighting, mITT subjects
[7] = Zavegepant 5 mg Group vs placebo, CMH weighting
[8] = Zavegepant 5 mg Group, intranasal single dose, mITT subjects
[9] = Zavegepant 10 mg Group vs placebo, CMH weighting, mITT subjects
[10] = Zavegepant 10 mg Group vs placebo, CMH weighting
[11] = Zavegepant 10 mg Group, intranasal single dose, mITT subjects
[12] = Zavegepant 20 mg Group vs placebo, CMH weighting, mITT subjects
[13] = Zavegepant 20 mg Group vs placebo, CMH weighting
[14] = Zavegepant 20 mg Group vs placebo, CMH weighting, subjects with symptom present at onset

## Cc1cc(C[C@@H](NC(=O)N2CCC(c3cc4ccccc4[nH]c3=O)CC2)C(=O)N2CCN(C3CCN(C)CC3)CC2)cc2cn[nH]c12 [Zavegepant, (R)-N-(3-(7-methyl-1H-indazol-5-yl)-1-(4-(1-methylpiperidin-4-yl)piperazin-1-yl)-1-oxopropan-2-yl)-4-(2-oxo-1,2-dihydroquinolin-3-yl)piperidine-1-carboxamide]
[1]
  pKa (second value): 8.8
[2]; 5 mg single dose
  Freedom from MBS (Most Bothersome Symptom), 2 Hour Endpoint: 39.0%
[2]; 15 mg (so in the source), Prophylactic migraine medication use: Yes
  Pain Relief at 15 Minutes Post-Dose, n/N (value in brackets): 13/50 (24.0)
[2]; 20 mg
  return to normal function: return to normal function as early as 30 minutes
[2]; 5, 10, and 20 mg single dose, stratified CMH tests, mITT
  onset of pain relief: pain relief as early as 15 minutes post-dose
[2]; 10 and 20 mg single dose
  co-primary endpoints of pain freedom and freedom from MBS at 2 hours versus placebo: statistically superior (p<0.05) to placebo
[2]; [6]
  (1) Pain relief at 2 hours postdose, Stratified Percentage Difference (Zavegepant − Placebo): 4.2%
  (3) Rescue medication use within 24 hours postdose, Stratified Percentage Difference (Zavegepant − Placebo): −2.4%
  (4) Photophobia freedom at 2 hours postdose, Stratified Percentage Difference (Zavegepant − Placebo): 4.6%
  (6) Pain relief at 60 minutes postdose, Stratified Percentage Difference (Zavegepant − Placebo): 5.1%
  (8) Pain relief at 30 minutes postdose, Stratified Percentage Difference (Zavegepant − Placebo): 1.9%
  (10) Sustained pain relief from 2 to 24 hours postdose, Stratified Percentage Difference (Zavegepant − Placebo): 8.0%
  (11) Sustained pain freedom from 2 to 24 hours postdose, Stratified Percentage Difference (Zavegepant − Placebo): 5.3%
  (12) Sustained pain relief from 2 to 48 hours postdose, Stratified Percentage Difference (Zavegepant − Placebo): 7.4%
  (13) Sustained pain freedom from 2 to 48 hours postdose, Stratified Percentage Difference (Zavegepant − Placebo): 5.5%
[2]; [7]
  (2) Return to normal function at 2 hours posidose, Stratified Percentage Difference (Zavegepant − Placebo): 4.3%
  (7) Return to normal function at 60 minutes postdose, Stratified Percentage Difference (Zavegepant − Placebo): 5.5%
  (9) Return to normal function at 30 minutes postdose, Stratified Percentage Difference (Zavegepant − Placebo): 3.4%
[2]; Zavegepant 5 mg Group vs placebo, CMH weighting, subjects with symptom present at onset
  (14) Nausca freedom at 2 hours postdose, Stratified Percentage Difference (Zavegepant − Placebo): 1.8%
[2]; [8]
  (4) Photophobia freedom at 2 hours postdose, n/N (%): 118/337 (35.0) %
  (6) Pain relief at 60 minutes postdose, n/N (%): 182/387 (47.0) %
[2]; Zavegepant 5 mg Group, intranasal single dose
  (9) Return to normal function at 30 minutes postdose, n/N (%): 32/363 (8.8) %
[2]; [9]
  (1) Pain relief at 2 hours postdose, Stratified Percentage Difference (Zavegepant − Placebo): 7.1%
  (3) Rescue medication use within 24 hours postdose, Stratified Percentage Difference (Zavegepant − Placebo): −1.1%
  (4) Photophobia freedom at 2 hours postdose, Stratified Percentage Difference (Zavegepant − Placebo): 5.1%
  (6) Pain relief at 60 minutes postdose, Stratified Percentage Difference (Zavegepant − Placebo): 4.2%
  (8) Pain relief at 30 minutes postdose, Stratified Percentage Difference (Zavegepant − Placebo): 5.3%
  (10) Sustained pain relief from 2 to 24 hours postdose, Stratified Percentage Difference (Zavegepant − Placebo): 6.8%
  (11) Sustained pain freedom from 2 to 24 hours postdose, Stratified Percentage Difference (Zavegepant − Placebo): 6.1%
  (12) Sustained pain relief from 2 to 48 hours postdose, Stratified Percentage Difference (Zavegepant − Placebo): 7.0%
  (13) Sustained pain freedom from 2 to 48 hours postdose, Stratified Percentage Difference (Zavegepant − Placebo): 6.3%
[2]; [10]
  (2) Return to normal function at 2 hours posidose, Stratified Percentage Difference (Zavegepant − Placebo): 7.1%
  (7) Return to normal function at 60 minutes postdose, Stratified Percentage Difference (Zavegepant − Placebo): 1.8%
  (9) Return to normal function at 30 minutes postdose, Stratified Percentage Difference (Zavegepant − Placebo): 2.1%
[2]; Zavegepant 10 mg Group vs placebo, CMH weighting, subjects with pain freedom at 2 hours postdose
  (15) Pain relapse from 2 to 48 hours postdose, Stratified Percentage Difference (Zavegepant − Placebo): −17.0%
[2]; Zavegepant 10 mg Group vs placebo, CMH weighting, subjects with symptom present at onset
  (14) Nausca freedom at 2 hours postdose, Stratified Percentage Difference (Zavegepant − Placebo): 2.9%
[2]; [11]
  (3) Rescue medication use within 24 hours postdose, n/N (%): 101/388 (26.0) %
  (6) Pain relief at 60 minutes postdose, n/N (%): 180/391 (46.0) %
[2]; Zavegepant 10 mg Group, intranasal single dose
  (9) Return to normal function at 30 minutes postdose, n/N (%): 27/354 (7.6) %
[2]; Zavegepant 10 mg Group, intranasal single dose, mITT subjects with pain freedom at 2 hours postdose
  (15) Pain relapse from 2 to 48 hours postdose, n/N (%): 29/88 (33.0) %
[2]; [12]
  (1) Pain relief at 2 hours postdose, Stratified Percentage Difference (Zavegepant − Placebo): 7.5%
  (3) Rescue medication use within 24 hours postdose, Stratified Percentage Difference (Zavegepant − Placebo): −7.1%
  (4) Photophobia freedom at 2 hours postdose, Stratified Percentage Difference (Zavegepant − Placebo): 7.4%
  (6) Pain relief at 60 minutes postdose, Stratified Percentage Difference (Zavegepant − Placebo): 7.8%
  (8) Pain relief at 30 minutes postdose, Stratified Percentage Difference (Zavegepant − Placebo): 1.9%
  (10) Sustained pain relief from 2 to 24 hours postdose, Stratified Percentage Difference (Zavegepant − Placebo): 8.9%
  (11) Sustained pain freedom from 2 to 24 hours postdose, Stratified Percentage Difference (Zavegepant − Placebo): 6.7%
  (12) Sustained pain relief from 2 to 48 hours postdose, Stratified Percentage Difference (Zavegepant − Placebo): 6.2%
  (13) Sustained pain freedom from 2 to 48 hours postdose, Stratified Percentage Difference (Zavegepant − Placebo): 5.7%
[2]; [13]
  (2) Return to normal function at 2 hours posidose, Stratified Percentage Difference (Zavegepant − Placebo): 7.3%
  (7) Return to normal function at 60 minutes postdose, Stratified Percentage Difference (Zavegepant − Placebo): 1.7%
  (9) Return to normal function at 30 minutes postdose, Stratified Percentage Difference (Zavegepant − Placebo): 4.5%
[2]; [14]
  (5) Phonophobia freedom at 2 hours postdose, Stratified Percentage Difference (Zavegepant − Placebo): 9.3%
  (14) Nausca freedom at 2 hours postdose, Stratified Percentage Difference (Zavegepant − Placebo): 3.7%
[2]; Zavegepant 20 mg Group, intranasal single dose
  (9) Return to normal function at 30 minutes postdose, n/N (%): 37/372 (9.9) %
[2]; nominal p<0.05
  secondary endpoints demonstrating early activity versus placebo: superior to placebo on multiple secondary endpoints
[2]; nominal p<0.05, 5, 10 and 20 mg (pain relief 2 to 48 h: 5 and 10 mg)
  durability of benefits (sustained pain freedom and pain relief 2 to 24 and 2 to 48 hours): durable and sustained without rescue medication out to 48 hours
[3]; 5 mg, Day 14, 0.500 h
  Plasma Concentrations (Mean): 8.08 ng/mL
[3]; in vivo, 5 mg
  AUC: 19 ng·h/mL
[3]; in vivo, 10 mg
  AUC: 30.9 ng·h/mL
[3]; in vivo, 20 mg
  AUC: 87.9 ng·h/mL
[3]; in vivo
  urine concentrations: below the limit of quantitation
[4]; at lower pH
  pH-solubility profile: > 300 mg/mL
[4]; pH = 8.2
  pH-solubility profile: 105 mg/mL
[5]; 5 mg (N = 388)
  ALT or AST > 3x ULN (subjects): 0
  Bilirubin > 2x ULN (subjects): 0
[5]; 10 mg (N = 394)
  ALT or AST > 3x ULN (subjects): 0
  Bilirubin > 2x ULN (subjects): 0
[5]; 20 mg (N = 403)
  ALT or AST > 3x ULN (subjects): 0
  Bilirubin > 2x ULN (subjects): 0
[5]; All zavegepant (N = 1185)
  ALT or AST > 3x ULN (subjects): 0
  Bilirubin > 2x ULN (subjects): 0
[5]; any treatment arm
  hepatotoxicity signal (AST or ALT>3× ULN, total bilirubin>2× ULN): no signal of hepatoxicity
[5]; intranasal, single dose trial
  tolerability and safety: well tolerated and safe
[5]; single dose trial
  AEs mild in intensity: > 80%
